# “And” between values parts separate entries of the source, which are not always exact repeats. Equal values may be shown once. Where a name gives a salt, the structure may show the parent alone. Read-outs that look alike come from different tables or passages of the source.
# Assays:
# [1] = test system: sc B16 melanoma; settings: for Tumor growth inhibition (TGI) / Mice without Palpable Tumors: sc B16
# From the text: Inhibition of tumor growth (TGI) is based on mean tumor volume of groups of 7 or 8 mice relative to untreated controls.
# Tumors used in these studies are maintained by serial transplantation in syngeneic strains of mice C57BL/6 for Lewis lung carcinoma, B16 melanoma and its F10 subline, M5076 sarcoma and colon adenocarcinoma 38; BALB/c for colon carcinoma 26, ADJ-PC6 plasmacytoma Madison lung carcinoma and colon adenocarcinoma 51, C3H for mammary adenocarcinoma 16/c. With the exception of the M5076 sarcoma, which is maintained as a i.p ascites cell suspension, all of the tumors were serially transplanted as s.c. solid tumors.
# For therapeutic trials, tumors were aseptically removed from donor mice and prepared for implantation s.c. into test animals. The test animals for Lewis lung carcinoma, B16 melanoma and its F10 subline, M5076 sarcoma and colon adenocarcinoma 38 are syngeneic female F1 hybrid B6D2F mice (C57B1/6×DBA/2). ADJ-PC6 plasmacytoma and colon carcinoma 26 are evaluated in female BALB/c mice. Madison lung carcinoma and colon adenocarcinoma 51 are evaluated in syngeneic female F1 hybrid CD2F1 mice (BALB/c×DBA/2). Mammary adenocarcinoma 16/c is evaluated in female C3H mice. The inoculum varies with the tumor. Colon adenocarcinomas 38 is implanted as 2 mm fragments by trochar. M5076 sarcoma and ADJ-PC6 plasmacytoma are implanted as cell suspensions at 5×10^6 and 2×10^6 cells per mouse, respectively. Colon carcinoma 26, colon adenocarcinoma 51, Lewis lung carcinoma, Madison lung carcinoma and B16 melanoma and its F10 subline are implanted as tumor breis prepared as described above in a volume of 0.5 ml. The brei concentration was 10 percent (w:v) except for colon carcinoma 26 for which the brei concentration was 5 percent (w:v). After tumor inoculation, mice are randomized to treatment groups of 7 or 8 mice. In each experiment, there are three groups of untreated control mice.
# Drugs are dissolved or suspended in appropriate aqueous vehicles and given by a variety of routes of administration and treatment schedules over a range of dosage levels. Animals are housed in shoebox cages and are monitored daily for mortality. […] Time for tumor measurement is dependent on the different rates of tumor growth of the different tumors: the most rapidly growing tumors such as the Lewis and Madison lung tumors, B16 melanoma and its F10 subline were measured between Days 12 and 16. The slower growing tumors were measured at later time points--17 days for M5076 sarcoma, 16 or 19 days for mammary adenocarcinoma 16/c, 19 days for ADJ-PC6 plasmacytoma and colon carcinoma 26, 24 days for colon adenocarcinoma 51, and 31 days for colon adenocarcinoma 38.
# For highly metastatic tumors including: Lewis and Madison lung tumors, colon carcinoma 26 and B16 melanoma and its F10 subline, tumor-bearing mice are monitored for survival time as well. For the less mestastatic tumor models, tumor-bearing mice are killed following tumor measurement. In this setting, an increase in lifespan of ≥30 percent is considered to be evidence of drug activity.
# [2] = test system: sc B16 melanoma/F10 subline; assay: sc-implanted B16 melanoma/F10 subline in mice; assay type: in vivo, mouse
# From the text: The inoculum varies with the tumor.
# [3] = test system: eight cultured human colon tumor cell lines; assay: Cytotoxicity in series of eight cultured human colon tumor cell lines; assay type: cell-based
# Description: For a brief exposure (2 hours) to the drug, the 50 percent inhibitory concentration ranged from 0.12-2.1 μg/ml.
# The cell lines are used and maintained as monolayer cultures in Minimal Essential Media (Grand Island Biological Co., Grand Island, N.Y.) supplemented with 10% fetal calf serum in a 5% CO2 humidified incubator at 37° C. Various concentrations of a Formula (I) compound under sterile conditions were allowed to react for 2 hours followed by aspiration of medium or were exposed continuously. Plates are incubated for 7 days at 37° C. in a CO2 incubator. Medium was aspirated and cells were fixed and stained with ethanol and Geisma stain. The surviving cell population was determined by scanning the plates with an image analyzer. The percent inhibition of proliferation was determined relative to cells incubated in the absence of drug and the 50 percent inhibitory concentration (IC50) was determined by interpolation.
# [4] = test system: iv P388 leukemia; settings: mouse, in vivo
# From the text: Tumors used in these studies P388 leukemia, L1210 leukemia and Lewis lung carcinoma--are maintained by serial transplantation in syngeneic strains of mice, DBA/2 for the leukemias and C57B1/6 for Lewis lung carcinoma. The leukemias are serially transplanted i.p. as ascites cell suspensions while the Lewis lung carcinoma is serially transplanted as a s.c. solid tumor.
# For therapeutic trials, tumors were aseptically removed from donor mice and prepared as suspensions for implantation into test animals which for each tumor are syngeneic female F1 hybrid B6D2F1 mice (C57B1/6×DBA/2). The inoculum level varies with the type of tumor: P388 leukemia is inoculated at 10^6 cells per mouse, L1210 leukemia at 10^5 or 10^6 cells per mouse, and Lewis lung carcinoma at 0.25 ml of a 10 percent (w:v) brei. […] After tumor inoculation, mice are randomized to treatment groups of 6 to 8 mice each. In each experiment, there are three groups of untreated control mice.
# Drugs are dissolved or suspended in appropriate aqueous vehicles and given i.p. or i.v. on various treatment schedules over a range of dosage levels. Animals are housed in shoebox cages and monitored daily for mortality for 30 (L1210), 45 (P388) or 60 (Lewis lung) days.
# [5] = test system: ip B16 melanoma/F10 subline; settings: mouse, in vivo; for Increase in lifespan (ILS): ip
# From the text: (§1) Tumors used in these studies--P388 leukemia and its doxorbicin--and mitoxanrone-resistant sublines, L1210 leukemia, B16 melanoma, B16 melanoma/F10 subline, M5076 sarcoma and colon carcinoma 26--are maintained by serial transplantation in syngeneic strains of mice. For the leukemias, these tumors are maintained in DBA/2 mice. The M5076 sarcoma, the B16 melanoma and its F10 subline are maintained in C57B1/6 mice and the colon sarcinoma 26 is maintained in BALB/c mice. The leukemias and the M5076 sarcoma are serially transplanted i.p. as ascites cell suspensions while the B16 melanoma lines and the colon carcinoma 26 are serially transplanted as s.c. solid tumors.
# (§2) For therapeutic trials, tumors are aseptically removed from donor mice and prepared as suspensions for implantation ip into test animals. The test animals for the colon carcinoma 26 are female BALB/c mice (20-25 gm). The test animals for the other tumor models are syngeneic female F1 hybrid B6D2F1 mice (C57B1/6 x DBA/2). The inoculum level varies with the type of tumor: P388 leukemia is inoculated at 10^6 cells per mouse, L1210 leukemia at 10^5 or 10^6 cells per mouse, M5076 sarcoma at 5×10^6 cells per mouse. For implantation of the B16 melanoma lines and the colon carcinoma 26, s.c. tumors from donor mice are minced and homogenized in loose fitting teflon glass homogenizer to give a tumor brei. The inoculum levels are 0.5 ml of a 10 percent (w:v) brei of the B16 melanoma lines and 0.5 ml of a 5 percent (w:v) brei of colon carcinoma 26. After tumor inoculation, mice randomized to treatment groups comprised of 6-8 mice each. In each experiment, there are three groups of untreated control mice. Drugs are dissolved or suspended in appropriate aqueous vehicles and given by a variety of routes and schedules of administration over a range of dose levels. Animals are housed in shoebox cages and are monitored daily for mortality for 30 (L1210), 45 (P388) or 60 (B16, M5076, colon 26) days.
# [6] = in vivo; settings: mouse, ip
# From the text: as §1, §2
# [7] = test system: ip L1210 leukemia; assay: ip-implanted L1210 leukemia in mice; settings: mouse, in vivo, ip;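 further: each mouse received 10^6 L1210 cells intraperitoneally, with drug treatment also given by the i.p. route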
# Description: For in vivo studies L1210 cells were implanted i.p. (10^6 per mouse)
# and drugs were administered i.p. on Days 1 and 5. Increase in lifespan
# (ILS) was based on median survival time of groups of 6 mice treated at th
# maximally tolerated dose of the drugs.
smiles,measurement,setting,value
"CC[C@@]1(O)C(=O)OCc2c1cc1n(c2=O)Cc2cc3c(CN(C)C)c(O)ccc3nc2-1 [Compound No. 1S, (20 S) 9-Dimethylaminomethyl-10-hydroxycamptothecin Acetate Salt]",Tumor growth inhibition (TGI),"[1]; F/ip (Days 1, 5 and 9), 3.1 mg/kg/injection",63%
same,Tumor growth inhibition (TGI),"[1]; F/ip (Days 1, 5 and 9), 5.2 mg/kg/injection",20%
same,Tumor growth inhibition (TGI),"[1]; F/ip (Days 1, 5 and 9), 8.6 mg/kg/injection",63%
same,Tumor growth inhibition (TGI),"[1]; F/ip (Days 1, 5 and 9), 14 mg/kg/injection",57%
same,Tumor growth inhibition (TGI),"[1]; F/ip (Days 1, 5 and 9), 24 mg/kg/injection",99%
same,Mice without Palpable Tumors,"[1]; F/ip, 3.1 mg/kg/injection",2/8
same,Mice without Palpable Tumors,"[1]; F/ip, 5.2 mg/kg/injection",1/8
same,Mice without Palpable Tumors,"[1]; F/ip, 8.6 mg/kg/injection",3/8
same,Mice without Palpable Tumors,"[1]; F/ip, 14 mg/kg/injection",3/8
same,Mice without Palpable Tumors,"[1]; F/ip, 24 mg/kg/injection",7/8
same,Tumor growth inhibition (TGI),"[1]; F/iv (Days 1, 5 and 9), 3.2 mg/kg/injection",54%
same,Tumor growth inhibition (TGI),"[1]; F/iv (Days 1, 5 and 9), 5.4 mg/kg/injection",79%
same,Tumor growth inhibition (TGI),"[1]; F/iv (Days 1, 5 and 9), 9 mg/kg/injection",96%
same,Tumor growth inhibition (TGI),"[1]; F/iv (Days 1, 5 and 9), 15 mg/kg/injection",99%
same,Tumor growth inhibition (TGI),"[1]; F/iv (Days 1, 5 and 9), 25 mg/kg/injection",toxic
same,Mice without Palpable Tumors,"[1]; F/iv, 3.2 mg/kg/injection",2/8
same,Mice without Palpable Tumors,"[1]; F/iv, 5.4 mg/kg/injection",3/8
same,Mice without Palpable Tumors,"[1]; F/iv, 9 mg/kg/injection",6/8
same,Mice without Palpable Tumors,"[1]; F/iv, 15 mg/kg/injection",7/8
same,Increase in Lifespan (ILS) or Inhibition of Tumor Growth (TGI),"[1]; sc B16 Melanoma, optimal doses and optimal schedules",100 % TGI
same,Increase in Lifespan (ILS) or Inhibition of Tumor Growth (TGI),"[2]; mouse, in vivo, sc",100 % TGI
same,Tumor growth inhibition (TGI),"[2]; sc B16/F10, B/ip (Days 1, 5, 9 and 13), 3.2 mg/kg/injection",52%
same,Tumor growth inhibition (TGI),"[2]; sc B16/F10, B/ip (Days 1, 5, 9 and 13), 5.4 mg/kg/injection",62%
same,Tumor growth inhibition (TGI),"[2]; sc B16/F10, B/ip (Days 1, 5, 9 and 13), 9 mg/kg/injection",57%
same,Tumor growth inhibition (TGI),"[2]; sc B16/F10, B/ip (Days 1, 5, 9 and 13), 15 mg/kg/injection",87%
same,Tumor growth inhibition (TGI),"[2]; sc B16/F10, B/ip (Days 1, 5, 9 and 13), 25 mg/kg/injection",100%
same,Mice without Palpable Tumors,"[2]; sc B16/F10, B/ip, 25 mg/kg/injection",7/8
same,Tumor growth inhibition (TGI),"[2]; sc B16/F10, F/iv (Days 1, 5 and 9), 3.2 mg/kg/injection",22%
same,Tumor growth inhibition (TGI),"[2]; sc B16/F10, F/iv (Days 1, 5 and 9), 5.4 mg/kg/injection",34%
same,Tumor growth inhibition (TGI),"[2]; sc B16/F10, F/iv (Days 1, 5 and 9), 9 mg/kg/injection",60%
same,Tumor growth inhibition (TGI),"[2]; sc B16/F10, F/iv (Days 1, 5 and 9), 15 mg/kg/injection",97%
same,Tumor growth inhibition (TGI),"[2]; sc B16/F10, F/iv (Days 1, 5 and 9), 25 mg/kg/injection",97%
same,Mice without Palpable Tumors,"[2]; sc B16/F10, F/iv, 3.2 mg/kg/injection",1/8
same,Mice without Palpable Tumors,"[2]; sc B16/F10, F/iv, 5.4 mg/kg/injection",1/8
same,Mice without Palpable Tumors,"[2]; sc B16/F10, F/iv, 9 mg/kg/injection",2/8
same,Mice without Palpable Tumors,"[2]; sc B16/F10, F/iv, 15 mg/kg/injection",7/8
same,Mice without Palpable Tumors,"[2]; sc B16/F10, F/iv, 25 mg/kg/injection",6/8
same,Increase in lifespan (ILS),"[2]; sc B16/F10, ip treatment at 25",70%
same,tumor growth inhibition at two dose levels,"[2]; sc B16/F10, iv on Days 1, 5 and 9",97%
same,ILS,"[2]; sc B16/F10, iv treatment at the same dose level (25)",38%
same,IC50,"[3]; 168 h, drug left in medium for full 7-day period, read-out: IC50 values, range over eight lines",0.0039 to 0.075 µg/mL
same,IC50,"[3]; brief exposure (2 hours), read-out: 50 percent inhibitory concentration, range over eight lines",0.12 to 2.1 µg/mL
same,Increase in lifespan (ILS),[4]; 3.2 mg/kg,42%
same,Increase in lifespan (ILS),[4]; 5.4 mg/kg,58%
same,ILS,[4]; 15 mg/kg,125
same,Increase in lifespan (ILS),[4]; 15 mg/kg,132%
same,cures,[4]; 15 mg/kg,1/6
same,Long-Term Survivors,[4]; 25 mg/kg,2/6
same,Increase in Lifespan (ILS) or Inhibition of Tumor Growth (TGI),[4]; iv,Curative
same,Increase in lifespan (ILS),"[4]; iv, 7.9 mg/kg",65%
same,Increase in lifespan (ILS),"[4]; iv, 14 mg/kg",145%
same,Long-Term Survivors,"[4]; iv, 19 mg/kg",2/6
same,Increase in lifespan (ILS),"[4]; iv, 25 mg/kg",toxic
same,increases in lifespan at two lower doses,[5],> 40
same,Increase in lifespan (ILS),[5]; 3.2 mg/kg,37%
same,Increase in lifespan (ILS),[5]; 5.4 mg/kg,63%
same,Increase in lifespan (ILS),[5]; 9 mg/kg,68%
same,Increase in lifespan (ILS),[5]; 25 mg/kg,toxic
same,MTD,[6],15 mg/kg
same,Increase in Lifespan (ILS) or Inhibition of Tumor Growth (TGI),[7],Curative
same,Increase in lifespan (ILS),[7]; 3.2 mg/kg,31%
same,Increase in lifespan (ILS),[7]; 5.4 mg/kg,81%
same,Increase in lifespan (ILS),[7]; 9 mg/kg,138%
same,Increase in lifespan (ILS),[7]; 15 mg/kg,219%
same,Long-Term Survivors,[7]; 15 mg/kg,2/6
same,Increase in lifespan (ILS),[7]; 25 mg/kg,toxic
same,long term survivors at the maximally tolerated doses,[7]; Acetate Salt,1/6 and 0/6 and 2/6 and 5/6

# — patent US5004758A, “Water soluble camptothecin analogs useful for inhibiting the growth of animal tumor cells” (priority 1988, dated 1991)
